# Experimental data reported in patent US4468469A, “Substituted phenylacetic acids and salts as TBP blocking agents in iodothyronine immunoassays” (Miles Laboratories, Inc., priority 1982, dated 1984).
# Experiments:
# [1] = system: rabbit antibody to thyroxine; experiment: Radioimmunoassay for thyroxine in serum with fenclofenac as TBP blocking agent; type: binding; conditions: 0.67 mM fenclofenac
# Description: A radioimmunoassay for thyroxine in serum was conducted using fenclofenac as the TBP blocking agent. Serum standards in 100 μl aliquots containing known concentrations of thyroxine were combined with 290 μl of 0.1M sodium phosphate buffer, pH 6.5, an amount of fenclofenac to give a concentration of 0.67 mM in the final assay mixture, 2 μl of rabbit antibody to thyroxine, and a fixed amount of ^125 I-thyroxine (approximately 34,000 counts per minute per 100 μl in the final volume). After incubation at room temperature for 2 hours, 400 μl of 50% (w/v) polyethyleneglycol was added and the resulting precipitates collected by centrifugation. The radioactivity of each precipitate was then measured. The results are shown in Table 3 (μg/dl is micrograms per deciliter).
# [2] = system: serum proteins (thyroxine binding protein, TBP); experiment: Dissociation of thyroxine from human serum, second experiment (Seralute Sephadex column, pH 7.0); conditions: for release and block the binding of protein-bound iodothyronine: summary of both experiments of Example I; for Percent Dissociated: pH 7.0, 5 min
# Description: Radioactive iodine labeled thyroxine (^125 I-thyroxine obtained from Amersham-Searle, Arlington Heights, IL, USA) was equilibrated with 5 ml of normal human serum for 48 hours at 4° C. […] After 5 minutes of incubation at room temperature, a 165 μl aliquot was applied to a Sephadex® column from a Seralute® thyroxine assay kit (Miles Laboratories, Inc., Ames Division, Elkhart, IN, USA), which had been equilibrated with 0.1M sodium phosphate, pH 7.0. The total radioactivity applied to the columns was measured and the undissociated material was washed through the column with 3 ml of buffer. The columns were counted to determine the percentage of thyroxine dissociated from the serum proteins.
# [3] = system: antiserum to thyroxine / phosphodiesterase; experiment: Enzyme substrate-labeled immunoassay for thyroxine; type: biochemical; conditions: 75 μl of 60 mM fenclofenac
# Description: The following reagents were assembled:
# Reagent A: 50 mM Bicine buffer with 0.1% sodium azide, pH 8.5
# Reagent B: 60 mM fenclofenac in 0.5N sodium hydroxide
# Reagent C: thyroxine standards with concentrations of 0, 2, 4, 6, 8, 10, 12, 16 and 20 μg/dl prepared by adding thyroxine (Sigma) to thyroxine free serum.
# Reagent D: antibody/enzyme reagent containing 50 μl antiserum per ml and 0.12 units per ml of phosphodiesterase (Sigma, Type VII) in Bicine buffer.
# Reagent E: 1.24 μM of the labeled conjugate (Part A above) in 5 mM formate, 0.1% sodium azide buffer, pH 3.5.
# The assay protocol involved adding 75 μl of Reagent B and 0.5 ml of Reagent A to a cuvette, followed by 75 μl of an appropriate Reagent C and another 0.5 ml of Reagent A, and finally 75 μl of Reagent D and a third 0.5 ml of Reagent A. After a 1 hour incubation at room temperature, the assay reaction was started by adding 75 μl of Reagent E and 0.5 ml of Reagent A to the cuvette. The fluorescence (excitation=360 nm, emission=450 nm) was measured 20 minutes after addition of Reagent E.
# [4] = system: rabbit antiserum to thyroxine / dihydrofolate reductase; experiment: Enzyme inhibitor-labeled immunoassay for thyroxine in serum; type: biochemical; conditions: 0.5 mM fenclofenac in antibody reagent; for Absorbance Change per Minute: 340 nm
# Description: An enzyme inhibitor-labeled immunoassay (U.S. Pat. No. 4,134,792) for thyroxine in serum was conducted using fenclofenac as the TBP blocking agent. Serum standards in 40 μl aliquots containing known concentrations of thyroxine were combined with 0.2 ml of an antibody reagent consisting of 21 μl rabbit antiserum to thyroxine in 1 ml of 0.1M sodium phosphate buffer, pH 6.5, containing 0.3M potassium chloride, 0.05% sodium azide, and 0.5 mM fencolfenac. After a 30 second incubation, to each mixture was added 0.2 ml of a conjugate reagent consisting of 0.63 mg/ml NADPH (0.65 mM), 0.0175 μM of a methotrexate-thyroxine conjugate [prepared as described in the U.S. patent application filed on even date herewith, assigned to the present assignee, entitled "Methotrexate-LabeledIodothyronine Conjugates Ser. No. 318,028, which application is incorporated herein by reference] in 10 mM sodium carbonate buffer, pH 9.5. […] After a further 5 minute incubation, to each mixture was added 50 μl of 2.5 mM dihydrofolate in 0.1M Tris.HCl, pH 8.5. Forty-five (45) seconds later, the absorbance of each solution at 340 nm was read over a 1 minute period.
# dihydrofolate reductase = experiment: Effect on the activity of dihydrofolate reductase; type: biochemical; conditions: for Absorbance Change Over 10 Minutes: 560 nm, 37° C.
# Description: Assay mixtures were prepared to contain various concentrations of fenclofenac and, in a 1 ml final volume at 37° C., 0.3 mM thiazoyl blue, […] dihydrofolate, 0.5 mM NADPH, and 0.012 Units/ml of dihydrofolate reductase. The absorbance of each reaction mixture at 560 nm was read over a 10 minute incubation period at 37° C.
smiles,measurement,setting,value
"O=C(O)Cc1ccccc1Oc1ccc(Cl)cc1Cl [Fenclofenac, 2-(2,4-dichlorophenoxy)phenylacetic acid]",Counts per Minute in Precipitate,[1]; thyroxine standard 0 μg/dl,"23,700 Counts per Minute"
same,Counts per Minute in Precipitate,[1]; thyroxine standard 1.0 μg/dl,"21,800 Counts per Minute"
same,Counts per Minute in Precipitate,[1]; thyroxine standard 2.5 μg/dl,"17,300 Counts per Minute"
same,Counts per Minute in Precipitate,[1]; thyroxine standard 5.0 μg/dl,"14,400 Counts per Minute"
same,Counts per Minute in Precipitate,[1]; thyroxine standard 10.0 μg/dl,"10,000 Counts per Minute"
same,Counts per Minute in Precipitate,[1]; thyroxine standard 20.0 μg/dl,"7,500 Counts per Minute"
same,release and block the binding of protein-bound iodothyronine,[2]; 0.25 mM in immunoassay reaction mixture,40-50%
same,release and block the binding of protein-bound iodothyronine,[2]; 0.50 mM in immunoassay reaction mixture,60-70%
same,Percent Dissociated,[2]; dissociating agent 0.25 mM,40%
same,Percent Dissociated,[2]; dissociating agent 0.50 mM,61%
same,Percent Dissociated,[2]; dissociating agent 1.00 mM,71%
same,Percent Dissociated,[2]; dissociating agent 2.00 mM,75%
same,Percent Dissociated,[2]; dissociating agent 4.00 mM,79%
same,Percent Dissociated,[2]; dissociating agent 8.00 mM,81%
same,fluorescence units,"[3]; thyroxine standard 0 μg/dl, excitation 360 nm, emission 450 nm",24.9 fluorescence units
same,fluorescence units,[3]; thyroxine standard 2 μg/dl,25.5 fluorescence units
same,fluorescence units,[3]; thyroxine standard 4 μg/dl,26.4 fluorescence units
same,fluorescence units,[3]; thyroxine standard 6 μg/dl,27.2 fluorescence units
same,fluorescence units,[3]; thyroxine standard 8 μg/dl,26.7 fluorescence units
same,fluorescence units,[3]; thyroxine standard 10 μg/dl,27.1 fluorescence units
same,fluorescence units,[3]; thyroxine standard 12 μg/dl,30.0 fluorescence units
same,fluorescence units,[3]; thyroxine standard 16 μg/dl,30.1 fluorescence units
same,fluorescence units,[3]; thyroxine standard 20 μg/dl,30.8 fluorescence units
same,interference with the spectrophotometric response at 340 nm or the enzymatic reaction,[4],did not substantially interfere
same,Absorbance Change per Minute,[4]; thyroxine standard 0 μg/dL,0.1682
same,Absorbance Change per Minute,[4]; thyroxine standard 1.0 μg/dL,0.1659
same,Absorbance Change per Minute,[4]; thyroxine standard 2.5 μg/dL,0.1648
same,Absorbance Change per Minute,[4]; thyroxine standard 10. μg/dL,0.1571
same,Absorbance Change per Minute,[4]; thyroxine standard 20. μg/dL,0.1498
same,Absorbance Change Over 10 Minutes,dihydrofolate reductase; 0.1 mM fenclofenac,0.359
same,Absorbance Change Over 10 Minutes,dihydrofolate reductase; 0.2 mM fenclofenac,0.365
same,Absorbance Change Over 10 Minutes,dihydrofolate reductase; 0.5 mM fenclofenac,0.355
same,Absorbance Change Over 10 Minutes,dihydrofolate reductase; 1.0 mM fenclofenac,0.332
same,Absorbance Change Over 10 Minutes,dihydrofolate reductase; 2.5 mM fenclofenac,0.273
same,Absorbance Change Over 10 Minutes,dihydrofolate reductase; 5.0 mM fenclofenac,0.118
same,inhibition of enzyme activity (dihydrofolate reductase),dihydrofolate reductase; concentrations below 1.0 mM,did not give substantial inhibition
